# Where “and” joins values, the source holds several entries; their conditions need not be identical. Equal values may be shown once. Read-outs that look alike come from different tables or passages of the source.
# Legend:
# Assay type in all cases: cell-based, human
# [1] = system: non-senescent control A549 cells; experiment: Nuclei count senolytic assay, TIS model, non-senescent control cells; conditions: for viability at 10 µM / viability at 4.68 µM / viability at 2.19 µM / viability at 1 µM / viability at 0.468 µM / viability at 0.219 µM / viability at 0.1 µM / viability at 0.0468 µM / viability at 0.0219 µM / viability at 0.01 µM: A549, Control cells, mean, read-out: Mean % Cell Survival; for % Cell Survival: control cells, single replicate
# Summary of the method: (§1)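 Nuclei counting by high-content imaging after 72 h compound treatment of senescent (etoposide-induced) versus control A549 cells. Top dose 10 μM final, lowest 10 nM.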
# [2] = system: senescent IMR90 ER:RAS cells (4-OHT-induced); experiment: Nuclei count (Hoechst, high content imaging) senolytic assay, oncogene-induced senescence (OIS) model, senescent cells; conditions: for viability at 4.677 µM: log (dose) [M] -5.33, 72 h; for viability at 1 µM: log (dose) [M] -6, 72 h; for viability at 0.4677 µM: log (dose) [M] -6.33, 72 h; for viability at 0.2188 µM: log (dose) [M] -6.66, 72 h; for viability at 0.1 µM: log (dose) [M] -7, 72 h
# Summary of the method: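 We compared total nuclei counts between senescent and non-senescent IMR90 ER:RAS cells after 72 h compound exposure (10 nM–10 μM). Hoechst staining followed fixation and permeabilisation; ouabain served as senolytic positive control.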
# [3] = system: senescent A549 cells (etoposide-induced); experiment: Nuclei count senolytic assay, therapy-induced senescence (TIS) model, senescent cells; conditions: for viability at 10 µM / viability at 4.68 µM / viability at 2.19 µM / viability at 1 µM / viability at 0.468 µM / viability at 0.219 µM / viability at 0.1 µM / viability at 0.0468 µM / viability at 0.0219 µM / viability at 0.01 µM: A549, Senescent cells, mean, read-out: Mean % Cell Survival; for % Cell Survival: senescence cells, single replicate
# Summary of the method: as §1
# [4] = Homo sapiens, log (dose) [M] -5
# [5] = Homo sapiens, log (dose) [M] -5.33
# [6] = Homo sapiens, log (dose) [M] -5.66
# [7] = Homo sapiens, log (dose) [M] -6
# [8] = Homo sapiens, log (dose) [M] -6.33
# [9] = Homo sapiens, log (dose) [M] -6.66
# [10] = Homo sapiens, log (dose) [M] -7
# [11] = Homo sapiens, log (dose) [M] -7.33
# [12] = Homo sapiens, log (dose) [M] -7.66
# [13] = Homo sapiens, log (dose) [M] -8
# [14] = Homo sapiens, IMR-90, 72 h, Senescent, log (dose) [M] -5, 72 h, mean n=3 (Fig 3C), read-out: Mean % Cell Survival
# [15] = Homo sapiens, IMR-90, 72 h, Senescent, mean n=3 (Fig 3C), read-out: Mean % Cell Survival
# [16] = Homo sapiens, IMR-90, 72 h, Senescent, log (dose) [M] -5.66, 72 h, mean n=3 (Fig 3C), read-out: Mean % Cell Survival
# [17] = Homo sapiens, IMR-90, 72 h, Senescent, log (dose) [M] -7.33, 72 h, mean n=3 (Fig 3C), read-out: Mean % Cell Survival
# [18] = Homo sapiens, IMR-90, 72 h, Senescent, log (dose) [M] -7.66, 72 h, mean n=3 (Fig 3C), read-out: Mean % Cell Survival
# [19] = Homo sapiens, IMR-90, 72 h, Senescent, log (dose) [M] -8, 72 h, mean n=3 (Fig 3C), read-out: Mean % Cell Survival
compound,measurement,setting,value
"CO[C@H]1C[C@@H]2CC[C@@H](C)[C@@](O)(O2)C(=O)C(=O)N2CCCC[C@H]2C(=O)O[C@H]([C@H](C)C[C@@H]2CC[C@@H](OP(C)(C)=O)[C@H](OC)C2)CC(=O)[C@H](C)/C=C(\C)[C@@H](O)[C@@H](OC)C(=O)[C@H](C)C[C@H](C)/C=C/C=C/C=C/1C [Ridaforolimus, ridaforolimus, reference compound]",viability at 10 µM,[1]; [4],110%
same,viability at 4.68 µM,[1]; [5],121%
same,viability at 2.19 µM,[1]; [6],69%
same,viability at 1 µM,[1]; [7],65.1%
same,viability at 0.468 µM,[1]; [8],96%
same,viability at 0.219 µM,[1]; [9],102%
same,viability at 0.1 µM,[1]; [10],97.4%
same,viability at 0.0468 µM,[1]; [11],108%
same,viability at 0.0219 µM,[1]; [12],74.4%
same,viability at 0.01 µM,[1]; [13],107%
same,viability at 10 µM,[2]; [14],122%
same,viability at 4.677 µM,[2]; [15],144%
same,viability at 2.188 µM,[2]; [16],164%
same,viability at 1 µM,[2]; [15],156%
same,viability at 0.4677 µM,[2]; [15],160%
same,viability at 0.2188 µM,[2]; [15],156%
same,viability at 0.1 µM,[2]; [15],126%
same,viability at 0.04677 µM,[2]; [17],128%
same,viability at 0.02188 µM,[2]; [18],131%
same,viability at 0.01 µM,[2]; [19],105%
same,viability at 2.188 µM,"[2]; Homo sapiens, IMR-90, Senescent cells, log (dose) [M] -5.66, individual replicates, SUP FIG 4C, read-out: % Cell Survival",166%
same,viability at 0.02188 µM,"[2]; Homo sapiens, IMR-90, Senescent cells, log (dose) [M] -7.66, individual replicates, SUP FIG 4C, read-out: % Cell Survival",129%
same,viability at 0.02188 µM,"[2]; Homo sapiens, IMR-90, Senescent, log (dose) [M] -7.66, read-out: % Cell Survival",81.7%
same,viability at 0.01 µM,"[2]; Homo sapiens, IMR-90, Senescent, log (dose) [M] -8, read-out: % Cell Survival",78.7%
same,viability at 10 µM,[3]; [4],162%
same,viability at 4.68 µM,[3]; [5],174%
same,viability at 2.19 µM,[3]; [6],157%
same,viability at 1 µM,[3]; [7],66.9%
same,viability at 0.468 µM,[3]; [8],113%
same,viability at 0.219 µM,[3]; [9],102%
same,viability at 0.1 µM,[3]; [10],60.6%
same,viability at 0.0468 µM,[3]; [11],60.9%
same,viability at 0.0219 µM,[3]; [12],84.7%
same,viability at 0.01 µM,[3]; [13],87.1%
"COc1cc(O)c2c(=O)cc(-c3ccc(OC)c(-c4c(O)cc(O)c5c(=O)cc(-c6ccc(O)cc6)oc45)c3)oc2c1 [Ginkgetin, ginkgetin]",viability at 10 µM,[1]; [4],56.2%
same,viability at 4.68 µM,[1]; [5],65.7%
same,viability at 2.19 µM,[1]; [6],98.7%
same,viability at 1 µM,[1]; [7],85.7%
same,viability at 0.468 µM,[1]; [8],31.8%
same,viability at 0.219 µM,[1]; [9],96.2%
same,viability at 0.1 µM,[1]; [10],94%
same,viability at 0.0468 µM,[1]; [11],96.8%
same,viability at 0.0219 µM,[1]; [12],95.6%
same,viability at 0.01 µM,[1]; [13],68.4%
same,IC50,"[1]; Homo sapiens, TIS model, non-senescent A549, nuclei count, 72 h",10.4 µM
same,% Cell Survival,[1]; log (dose) [M] -5,52.2043% and 59.0944% and 57.4435%
same,% Cell Survival,[1]; log (dose) [M] -5.33,97.7607% and 99.3093%
same,% Cell Survival,[1]; log (dose) [M] -5.66,91.6025% and 99.9233% and 104.599%
same,% Cell Survival,[1]; log (dose) [M] -6,75.5773% and 89.4858% and 92.1278%
same,% Cell Survival,[1]; log (dose) [M] -6.33,95.472%
same,% Cell Survival,[1]; log (dose) [M] -6.66,87.9636% and 100.998% and 99.7662%
same,% Cell Survival,[1]; log (dose) [M] -7,85.4444% and 99.693% and 96.7264%
same,% Cell Survival,[1]; log (dose) [M] -7.33,92.3723% and 99.3093% and 98.675%
same,% Cell Survival,[1]; log (dose) [M] -7.66,89.3632% and 102.916% and 94.4661%
same,% Cell Survival,[1]; log (dose) [M] -8,103.761% and 101.325%
same,viability at 10 µM,[2]; [14],5.11%
same,viability at 4.677 µM,[2]; [15],9.69%
same,viability at 2.188 µM,[2]; [16],80%
same,viability at 1 µM,[2]; [15],93.5%
same,viability at 0.4677 µM,[2]; [15],108%
same,viability at 0.2188 µM,[2]; [15],95.6%
same,viability at 0.1 µM,[2]; [15],105%
same,viability at 0.04677 µM,[2]; [17],113%
same,viability at 0.02188 µM,[2]; [18],105%
same,viability at 0.01 µM,[2]; [19],110%
same,viability at 10 µM,"[2]; Homo sapiens, IMR-90, senescence, log (dose) [M] -5, individual replicates (Fig 3D), read-out: % Cell Survival",4.7%
same,viability at 2.188 µM,"[2]; Homo sapiens, IMR-90, senescence, log (dose) [M] -5.66, individual replicates (Fig 3D), read-out: % Cell Survival",71.2%
same,viability at 0.04677 µM,"[2]; Homo sapiens, IMR-90, senescence, log (dose) [M] -7.33, individual replicates (Fig 3D), read-out: % Cell Survival",116%
same,IC50,"[2]; Homo sapiens, IMR-90, OIS model, 4-OHT-induced IMR90 ER:RAS, nuclei count, 72 h",2.6 µM
same,dose showing the clearest senolytic effect,"[2]; OIS IMR90 ER:RAS, Hoechst nuclei count, marginal effect on normal cells",4.6 µM
same,senolytic activity (in words),"[2]; experimental screen, OIS IMR90 ER:RAS",clear senolytic action
same,viability at 10 µM,[3]; [4],25.9%
same,viability at 4.68 µM,[3]; [5],55.3%
same,viability at 2.19 µM,[3]; [6],103%
same,viability at 1 µM,[3]; [7],115%
same,viability at 0.468 µM,[3]; [8],104%
same,viability at 0.219 µM,[3]; [9],126%
same,viability at 0.1 µM,[3]; [10],85.3%
same,viability at 0.0468 µM,[3]; [11],89.9%
same,viability at 0.0219 µM,[3]; [12],99.8%
same,viability at 0.01 µM,[3]; [13],95.8%
same,IC50,"[3]; Homo sapiens, TIS model, etoposide-induced senescent A549, nuclei count, 72 h",5.7 µM
same,concentration at which a senolytic effect was reached,"[3]; TIS A549, Hoechst labelling, marginal or no effect on normal cells",4.64 µM
same,senolytic action (in words),"[3]; experimental screen, TIS senescent A549",strong senolytic action
same,% Cell Survival,[3]; log (dose) [M] -5,26.9419% and 20.9924% and 29.7526%
same,% Cell Survival,[3]; log (dose) [M] -5.33,57.8726% and 51.7176% and 56.1849%
same,% Cell Survival,[3]; log (dose) [M] -5.66,111.826% and 87.7863% and 107.943%
same,% Cell Survival,[3]; log (dose) [M] -6,147.166% and 101.59% and 95.3776%
same,% Cell Survival,[3]; log (dose) [M] -6.33,97.7607% and 104.262% and 110.807%
same,% Cell Survival,[3]; log (dose) [M] -6.66,107.348% and 137.468% and 133.789%
same,% Cell Survival,[3]; log (dose) [M] -7,106.298% and 85.6234% and 63.9323%
same,% Cell Survival,[3]; log (dose) [M] -7.33,97.7607% and 95.0382% and 76.8229%
same,% Cell Survival,[3]; log (dose) [M] -7.66,110.287% and 102.735% and 86.4583%
same,% Cell Survival,[3]; log (dose) [M] -8,107.348% and 95.9288% and 84.0495%

# Source: paper PMC10257182, “Discovery of senolytics using machine learning” (Nature Communications, 2023)
